Measured values from US6287840A (Axys Pharmaceuticals, Inc., priority 1999, dated 2001).
Like-named read-outs stand apart in the source and are kept apart here.

Experiments:
[1] = molecular target: T1, Cathepsin B from human placenta (Homo sapiens, UniProt P07858); experiment: Inhibition of cathepsin B, Z-Arg-Arg-AMC fluorescence progress curves; type: biochemical; conditions: for Ki: corrected for substrate; for k/KI (kirr/KI): values without asterisk
T1 construct: Cathepsin B from human placenta, obtained from Sigma; purchased Sigma; host or cells: human placenta (tissue)
Procedure, shortened: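 Human placental enzyme (~10 nM) in 50 mM phosphate pH 6.2 with 2.5 mM DTT and 2.5 mM EDTA, 50 μM Z-Arg-Arg-AMC, inhibitors 30-0.001 μM, 25° C. AMC fluorescence (ex 380/em 460 nm) progress curves fitted for kobs; kobs/[I] reported, with kirr, KI and kirr/KI substrate-corrected for selected compounds.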

[2] = molecular target: T2, Cathepsin L from rat liver (Rattus norvegicus, UniProt P07154); experiment: Inhibition of cathepsin L, Z-Phe-Arg-AMC fluorescence progress curves; type: biochemical; conditions: for kobs /[I]* (approximate second-order inactivation constant): values marked *; for kobs /[I]* (approximate second-order inactivation constant) / k/KI (kirr/KI): 25° C., pH 6.2; for Ki: corrected for substrate; for k/KI (kirr/KI): values without asterisk
T2 construct: Cathepsin L from rat liver; from tissue; host or cells: rat liver
T2 sequence (P07154 114-288 limits assumed): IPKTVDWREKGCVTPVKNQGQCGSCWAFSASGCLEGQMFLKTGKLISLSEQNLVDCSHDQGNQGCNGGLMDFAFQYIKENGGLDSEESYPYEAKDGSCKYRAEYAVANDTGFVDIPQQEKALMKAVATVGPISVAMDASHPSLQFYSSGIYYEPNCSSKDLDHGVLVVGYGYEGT
T2 sequence (P07154 291-334 limits assumed): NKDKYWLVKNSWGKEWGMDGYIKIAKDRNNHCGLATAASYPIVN
Procedure, shortened: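 Progress curves of AMC release (380/460 nm) over at least 3 inactivation half-times were fitted to kobs, reported as kobs/[I] or, via 1/[I] vs 1/kobs, kirr, KI (substrate-corrected) and kirr/KI.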

Cloned cathepsin S = molecular target: T3, Cloned cathepsin S (Homo sapiens, UniProt P25774); experiment: Inhibition of cathepsin S, Z-Val-Val-Arg-AMC fluorescence progress curves; type: biochemical; conditions: for Ki: corrected for substrate; for kobs /[I]* (approximate second-order inactivation constant): values marked *; for kobs /[I]* (approximate second-order inactivation constant) / k/KI (kirr/KI): 25° C., pH 6.5; for k/KI (kirr/KI): values without asterisk
T3 construct: made in house
T3 sequence (P25774 115-331): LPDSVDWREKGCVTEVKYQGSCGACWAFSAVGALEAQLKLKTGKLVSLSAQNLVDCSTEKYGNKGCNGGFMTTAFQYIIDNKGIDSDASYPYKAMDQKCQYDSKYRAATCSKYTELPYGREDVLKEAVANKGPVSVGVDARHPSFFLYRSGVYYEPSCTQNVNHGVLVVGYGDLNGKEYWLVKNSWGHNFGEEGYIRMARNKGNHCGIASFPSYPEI
Procedure, shortened: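 Progress curves at 25 °C in 100 mM phosphate pH 6.5, 2.5 mM DTT, 2.5 mM EDTA, 0.01% Triton, enzyme <1 nM, 10 μM substrate, inhibitors 30-0.001 μM; AMC fluorescence ex 380/em 460 nm. kobs from nonlinear fits gave kobs/[I]; selected compounds yielded kirr, KI (substrate-corrected), kirr/KI.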

cruzain, from T. cruzi = cruzain, from T. cruzi (Trypanosoma cruzi, UniProt P25779); experiment: Inhibition of cruzain, as for cathepsin L; type: biochemical; conditions: for kobs /[I]* (approximate second-order inactivation constant): values marked *; for k/KI (kirr/KI): values without asterisk
Sequence of cruzain, from T. cruzi (P25779 123-337 limits assumed): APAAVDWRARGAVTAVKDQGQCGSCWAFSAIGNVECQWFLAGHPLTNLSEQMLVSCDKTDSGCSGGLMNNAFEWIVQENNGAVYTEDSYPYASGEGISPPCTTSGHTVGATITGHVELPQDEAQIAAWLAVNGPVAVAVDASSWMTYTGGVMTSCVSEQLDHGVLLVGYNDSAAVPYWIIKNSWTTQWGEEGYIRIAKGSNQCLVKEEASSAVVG
Procedure, shortened: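 Run as for cathepsin L with 1 nM cruzain in 50 mM phosphate pH […], 2.5 mM DTT, 2.5 mM EDTA, 5 μM Z-Phe-Arg-AMC, at 25 °C, inhibitors 30-0.001 μM; fluorescence (ex 380/em 460 nm) followed continuously. kobs fitted from progress curves and kobs/[I] reported; selected compounds gave kirr, KI, kirr/KI, with KI corrected by (1+[S]/Km).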

[3] = Stability of selected inhibitors toward glutathione (Ellmans reagent); type: physicochemical; conditions: for reaction with GSH: after 24 hours, pH=6.2, 15% DMF, 20° C.
Description: The inhibitors (5 mM) were incubated with glutathione (GSH) (0.3 mM) in phosphate buffer (50 mM) at pH=6.2 containing 15% DMF at 20° C. Periodically, 50 μL samples were added to 1 mL of buffer and treated with 10 μL of 30 mM Ellmans reagent and the absorbance measured at 412 nm.

[4] = test system: human malarial parasite Plasmodium falciparum; experiment: In vitro protease activity of malarial parasite, substrate Z-Phe-Arg-AMC; type: biochemical; conditions: read-out: P. falciparum IC50 (human)
Excerpt: (§1) The following table summarizes the comparative IC50 values for selected cysteine protease inhibitors against the human malarial parasite Plasmodium falciparum and the mouse malarial parasite Plasmodium vinckei. The substrate used to measure in vitro protease activity was Z-Phe-Arg-AMC.

[5] = test system: mouse malarial parasite Plasmodium vinckei; experiment: as above; type: biochemical; conditions: read-out: P. vinckei IC50 (murine)
Excerpt: as §1

chymotrypsin = experiment: Selectivity versus serine proteases: chymotrypsin; type: biochemical; conditions: 100 μM
T. cruzi = T. cruzi infected irradiated J774 cells; type: cell-based; set-up: dose or concentration left out as unconfirmed; conditions: thereafter without inhibitor; compounds listed in decreasing order of effectiveness
Description: Irradiated J774 cells were infected with T. cruzi and simultaneously treated with […] of peptidyl vinyl derivatives for 5 days; thereafter without inhibitor. The following compounds were effective in decreasing order: Mu-Phe-ArgVSPh, Boc-Tyr(I2)-HphVSPh, Mu-Phe-VaIVSPh, Boc-Tic-HphVSPh, Mu-Phe-Ser(OBzl)VSPh, Mu-Leu-HphVSPh, Mu-Tyr(I2)-HphVSPh, Mu-Phe-LysVSPh, Mu-Tic-HphVSPh.

U251MGn = experiment: Matrigel barrier migration assay, U251MGn; type: cell-based, human; set-up: dose or concentration left out as unconfirmed
Description: (§2) Two permanent human glioma cell lines (U87MG and U251MGn) and a well characterized low passage primary culture derived from a CB-positive glioblastoma (HF66) were used to assess the migratory behavior in the Matrigel barrier migration assay in the presence of graded concentrations of four compounds.
(§3) Using the Matrigel assay, Mu-Leu-HphVSPh, Mu-Tyr-HphVSPh, Mu-Phe-HphVSPh, and Mu-Tyr(I2)-HphVSPh (all at 10 mM) inhibited U251MGn by 67, 56, 29, & 20% respectively, while the U87MG cells were inhibited 53, 75, 63, & 56% respectively. The primary culture HF66 cells were inhibited only 10% by these compounds at the same concentration.

U87MG = experiment: Matrigel barrier migration assay, U87MG; type: cell-based, human; set-up: dose or concentration left out as unconfirmed
Description: as §2, §3

calpain = experiment: Inhibition (inactivation) of calpain, Suc-Leu-Tyr-AMC; type: biochemical; conditions: values marked * (or %); pH 7.5, 5 mM CaCl2, 25° C.
Description: The inhibitors were tested against calpain at 1 or 2% as for the other enzymes. The reaction conditions were 50 mM Tris, pH 7.5, 5 mM CaCl2, 2.5 mM DTT, assayed at 25° C. The substrate was 100 μM Suc-Leu-Tyr-AMC.

[6] = test system: Leishmania donovani amastigote infected mouse peritoneal macrophages; experiment: In vitro antiprotozoal activity, Leishmania donovani; type: cell-based; set-up: key to percentage inhibition, L. donovani: the term "T" indicates the molecule to have displayed cytotoxicity
Description: (§4) In this table, the in vitro antiprotozoal activities of the indicated compounds were measured as percentage inhibition of Leishmania donovani amastigote infecteda mouse peritoneal macrophages, Trypanosoma cruzi amastigote infected macrophages, and Trypanosoma brucei extracellular bloodstream forms.

[7] = test system: Trypanosoma cruzi amastigote infected macrophages; experiment: In vitro antiprotozoal activity, Trypanosoma cruzi; type: cell-based
Description: as §4

[8] = test system: Trypanosoma brucei extracellular bloodstream forms; experiment: In vitro antiprotozoal activity, Trypanosoma brucei; type: cell-based
Description: as §4

| Molecule | kirr [1] [s⁻¹] | Ki [1] [nM] | k/KI (kirr/KI) ([1]; 25° C., pH 6.2) | kobs /[I]* (approximate second-order inactivation constant) [2] | kirr (Cloned cathepsin S) [s⁻¹] | Ki (Cloned cathepsin S) [nM] | kobs /[I]* (approximate second-order inactivation constant) (cruzain, from T. cruzi) | effectiveness against T. cruzi in J774 cells (T. cruzi) | kirr [2] [s⁻¹] | Ki [2] [nM] | k/KI (kirr/KI) [2] | IC50 ([5]; cells printed in nM) [µM] | k/KI (kirr/KI) (Cloned cathepsin S) | other results |
| --- | --- | --- | --- | --- | --- | --- | --- | --- | --- | --- | --- | --- | --- | --- |
| CS(=O)(=O)/C=C/[C@H](CCc1ccccc1)NC(=O)[C@H](Cc1ccccc1)NC(=O)N1CCOCC1 [Mu-Phe-HphVSMe, (S)-(E)-5-(4-morpholinecarbonylphenylalanyl)amino-7-phenyl-2-thia-3-heptene 2,2-dioxide] | 0.13 | 26000 | 5100 M⁻¹ s⁻¹ | 8700 M⁻¹ s⁻¹ | 0.10 | 88 | 22,000 M^-1 sec^-1 | – | – | – | – | – | – | reaction with GSH ([3]; inhibitor 5 mM, GSH 0.3 mM): no measurable reaction; IC50 ([4]; cells printed in μM): 1 µM; IC50 ([5]; cells printed in μM): 1 µM |
| C[C@H](NC(=O)OC(C)(C)C)C(=O)N[C@H](/C=C/S(=O)(=O)c1ccccc1)Cc1ccccc1 [Boc-Ala-PheVSPh] | – | – | – | – | – | – | – | – | – | – | – | – | – | binding to chymotrypsin (chymotrypsin; 100 mM TRIS buffer at pH=7.5): did not bind; inactivation of chymotrypsin (chymotrypsin; pH=7.5, after 1 hour): nor did it inactivate |
| O=C(N[C@H](/C=C/S(=O)(=O)c1ccccc1)CCc1ccccc1)C(Cc1cc(I)c(O)c(I)c1)NC(=O)N1CCOCC1 (stereo partly drawn) [Mu-Tyr(I2)-HphVSPh, (S)-(E)-3-[4-morpholinecarbonyl-(3,5-diiodotyrosyl)]-amino-5-phenyl-1-phenylsulfonyl-1-pentene] | 0.18 | 4700 | 39,200 M^-1 sec^-1 | 190,000 M^-1 sec^-1 | – | – | 114,000 M^-1 sec^-1 | effective | – | – | – | – | – | kobs /[I]* (approximate second-order inactivation constant) (Cloned cathepsin S): > 7,300,000 M^-1 sec^-1; inhibition of U251MGn migration (U251MGn): 20%; inhibition of U87MG migration (U87MG): 56% |
| Br.CCOC(=O)/C=C/[C@H](CCCNC(=N)N)NC(=O)[C@H](Cc1ccccc1)NC(=O)N1CCOCC1 [Mu-Phe-ArgVEOEt.HBr, ethyl (S)-(E)-7-guanidino-4-(4-morpholinecarbonylphenylalanyl)amino-2-heptenoatehydrobromide] | 0.16 | 19000 | 8200 M⁻¹ s⁻¹ | – | – | – | – | – | 0.18 | 3100 | 56,900 M^-1 sec^-1 | 0.2 | – | second order rate constant for the loss of GSH ([3]; inhibitor 5 mM, GSH 0.3 mM, pH=6.2, 20° C.): 0.0053 M⁻¹ s⁻¹; times more reactive with GSH ([3]; relative to Mu-Phe-LysVSPh): 10 times; IC50 ([4]; cells printed in nM): 0.3 µM |
| (S)-(E)-3-(4-morpholinecarbonyltyrosyl)amino-5-phenyl-1-phenylsulfonyl-1-pentene [Mu-Tyr-HphVSPh] | – | – | – | 700,000 M^-1 sec^-1 | – | – | 297,000 M^-1 sec^-1 | – | – | – | – | – | – | kobs /[I]* (approximate second-order inactivation constant) ([1]; values marked *, 25° C., pH 6.2): 20,000 M^-1 sec^-1; kobs /[I]* (approximate second-order inactivation constant) (Cloned cathepsin S): 4,200,000 M^-1 sec^-1; inhibition of U251MGn migration (U251MGn): 56%; inhibition of U87MG migration (U87MG): 75% |
| (S)-(E)-3-(4-morpholinecarbonylphenylalanyl)amino-4-benzyloxy-1-phenylsulfonyl-1-butene [Mu-Phe-Ser(OBzl)VSPh] | 0.14 | 47000 | 2900 M⁻¹ s⁻¹ | – | 0.092 | 74 | – | effective | 0.20 | 4600 | 42,700 M^-1 sec^-1 | 0.5 | 1,240,000 M^-1 sec^-1 | k/KI (kirr/KI) (cruzain, from T. cruzi): 12,800 M^-1 sec^-1; kobs /[I]* (calpain): < 50 M⁻¹ s⁻¹; percentage inhibition, L. donovani ([6]; 3 uM): 100%; percentage inhibition, L. donovani ([6]; 10 uM): 100%; percentage inhibition, L. donovani ([6]; 30 uM): 100%; percentage inhibition, L. donovani ([6]; 90 uM): T; percentage inhibition, T. cruzi ([7]; 3 uM): 5.2%; percentage inhibition, T. cruzi ([7]; 10 uM): 15.7%; percentage inhibition, T. cruzi ([7]; 30 uM): 15.1%; percentage inhibition, T. cruzi ([7]; 90 uM): 50.7%; percentage inhibition, T. brucei ([8]; 1 uM): 5.2%; percentage inhibition, T. brucei ([8]; 3 uM): 11.5%; percentage inhibition, T. brucei ([8]; 10 uM): 93.3%; percentage inhibition, T. brucei ([8]; 30 uM): 1.00%; percentage inhibition, T. brucei ([8]; 90 uM): 100%; IC50 ([4]; cells printed in μM): 1 µM |
| Br.N=C(N)NCCC[C@@H](/C=C/S(=O)(=O)c1ccccc1)NC(=O)[C@H](Cc1ccccc1)NC(=O)N1CCOCC1 [Mu-Phe-ArgVSPh.HBr, (S)-(E)-3-(4-morpholinecarbonylphenylalanyl)amino-6-guanidino-1-phenylsulfonyl-1-hexene hydrobromide] | 0.15 | 12000 | 12,300 M^-1 sec^-1 | – | 0.031 | 16 | – | effective | 0.67 | 1900 | 349,000 M^-1 sec^-1 | 0.05 | 2,000,000 M^-1 sec^-1 | k/KI (kirr/KI) (cruzain, from T. cruzi): 91,400 M^-1 sec^-1; kobs /[I]* (calpain): < 50 M⁻¹ s⁻¹; percentage inhibition, L. donovani ([6]; 3 uM): 0%; percentage inhibition, L. donovani ([6]; 10 uM): 0%; percentage inhibition, L. donovani ([6]; 30 uM): 0%; percentage inhibition, L. donovani ([6]; 90 uM): 1.3%; percentage inhibition, T. cruzi ([7]; 3 uM): 0%; percentage inhibition, T. cruzi ([7]; 10 uM): 0%; percentage inhibition, T. cruzi ([7]; 30 uM): 0%; percentage inhibition, T. cruzi ([7]; 90 uM): 5.8%; percentage inhibition, T. brucei ([8]; 3 uM): 0%; percentage inhibition, T. brucei ([8]; 10 uM): 0%; percentage inhibition, T. brucei ([8]; 30 uM): 0%; percentage inhibition, T. brucei ([8]; 90 uM): 0%; IC50 ([4]; cells printed in nM): 0.05 µM |
| CCOP(=O)(C/C=C/[C@H](CCc1ccccc1)NC(=O)[C@H](Cc1ccccc1)NC(=O)N1CCOCC1)OCC [Mu-Phe-HphVPEt, diethyl (S)-(E)-4-(4-morpholinecarbonylphenylalanyl)amino-6-phenyl-2-hexenephosphonate] | – | – | – | – | 0.40 | 36000 | – | – | 0.16 | 39000 | 4100 M⁻¹ s⁻¹ | – | 11,200 M^-1 sec^-1 | reaction with GSH ([3]; inhibitor 5 mM, GSH 0.3 mM): no measurable reaction |
